Results taken from patent US20220296613A1, “FOOD-INDEPENDENT DOSING OF CV-10155 TO TREAT GABAA DISORDERS” (priority 2021, published 2022).
pEC50: −log10 of the molar value. Read-outs that look alike come from different tables or passages of the source.

Legend:
α1β2γ2 GABAA receptors = α1β2γ2 GABAA receptors (Homo sapiens, UniProt P14867+P47870); experiment: Synchropatch electrophysiology, potentiation of synaptic GABAA receptors; format: cell-based
α4β3δ GABAA receptors = α4β3δ GABAA receptors (Homo sapiens, UniProt P28472+P48169); experiment: Synchropatch electrophysiology, potentiation of extra synaptic GABAA receptors; format: cell-based
[1] = test system: models of depression, anxiety, seizure, and EEG; experiment: Preclinical rodent models of seizure, anxiety, depression and EEG biomarker (overall); format: in vivo
[2] = not given; remark: listed apart in the source
in vivo = conditions: beagle, dog, iv, 1 mg/kg
clinical [3] = conditions: human, in vivo
clinical [4] = conditions: human, in vivo, 60 mg
[5] = Pharmacokinetics of CV-10155 in preclinical rodent studies
[6] = HV, 60 mg evening dosing (n = 12)
[7] = humans, 60 mg, day 7 MAD, morning dosing, fasted
[8] = humans, 60 mg, evening, fed state, N = 9
[9] = humans, 60 mg, morning, fasted state, N = 9
[10] = humans, evening, fed state, subject a, dosing day 1
[11] = humans, evening, fed state, subject l, dosing day 1
[12] = humans, evening, fed state, subject o, dosing day 3
[13] = humans, evening, fed state, subject p, dosing day 2
[14] = humans, evening, fed state, subject p, dosing day 7
[15] = humans, evening, fed state, subject p, dosing day 8
[16] = humans, evening, fed state, subject v, dosing day 4
[17] = 1 mg/kg (minimal effective dose), study including male and female subjects
[18] = 3 mg/kg, study including male and female subjects
[19] = 5 mg/kg, study including only male subjects
[20] = 10 mg/kg, study including male and female subjects

α1β2γ2 GABAA receptors, sequence (P14867 28-456): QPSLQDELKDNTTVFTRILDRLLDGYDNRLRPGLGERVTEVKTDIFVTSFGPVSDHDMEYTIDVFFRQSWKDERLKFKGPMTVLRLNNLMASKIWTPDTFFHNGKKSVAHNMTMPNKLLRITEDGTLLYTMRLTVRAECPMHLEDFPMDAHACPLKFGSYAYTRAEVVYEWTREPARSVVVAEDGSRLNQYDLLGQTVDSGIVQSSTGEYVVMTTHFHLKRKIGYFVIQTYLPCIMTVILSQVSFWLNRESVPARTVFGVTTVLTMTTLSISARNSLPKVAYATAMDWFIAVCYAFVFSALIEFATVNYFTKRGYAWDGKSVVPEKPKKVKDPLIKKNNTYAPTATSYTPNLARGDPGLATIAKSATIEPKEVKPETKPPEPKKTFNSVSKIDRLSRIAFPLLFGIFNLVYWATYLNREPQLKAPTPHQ
α1β2γ2 GABAA receptors, sequence (P47870 25-512 limits assumed): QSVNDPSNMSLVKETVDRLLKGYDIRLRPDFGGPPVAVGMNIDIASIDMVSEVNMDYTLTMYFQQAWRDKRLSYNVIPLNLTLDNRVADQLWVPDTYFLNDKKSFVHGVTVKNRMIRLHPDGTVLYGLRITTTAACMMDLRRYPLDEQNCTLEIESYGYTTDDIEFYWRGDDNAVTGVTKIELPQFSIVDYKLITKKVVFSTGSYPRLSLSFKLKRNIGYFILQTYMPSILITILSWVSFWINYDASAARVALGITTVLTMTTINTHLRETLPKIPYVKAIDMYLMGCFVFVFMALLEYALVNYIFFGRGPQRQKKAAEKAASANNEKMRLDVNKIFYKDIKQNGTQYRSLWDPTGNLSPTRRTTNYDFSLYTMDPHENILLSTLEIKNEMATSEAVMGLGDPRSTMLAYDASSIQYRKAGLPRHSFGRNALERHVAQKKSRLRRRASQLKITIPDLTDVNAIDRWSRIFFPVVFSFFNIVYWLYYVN
α1β2γ2 GABAA receptors, sequence (P18507 40-475 partner): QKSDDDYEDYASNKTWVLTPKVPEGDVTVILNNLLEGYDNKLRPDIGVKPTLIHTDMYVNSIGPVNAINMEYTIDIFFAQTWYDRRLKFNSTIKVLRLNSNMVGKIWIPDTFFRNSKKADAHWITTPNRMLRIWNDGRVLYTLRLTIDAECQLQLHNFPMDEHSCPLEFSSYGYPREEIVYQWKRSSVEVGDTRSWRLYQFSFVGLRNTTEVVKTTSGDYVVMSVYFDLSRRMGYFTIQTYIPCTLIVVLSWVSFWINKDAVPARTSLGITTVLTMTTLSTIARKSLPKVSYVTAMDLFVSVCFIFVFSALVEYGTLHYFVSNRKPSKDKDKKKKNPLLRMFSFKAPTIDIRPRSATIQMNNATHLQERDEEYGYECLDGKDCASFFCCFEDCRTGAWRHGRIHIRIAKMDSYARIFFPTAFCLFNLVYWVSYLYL
α4β3δ GABAA receptors, sequence (P48169 36-554): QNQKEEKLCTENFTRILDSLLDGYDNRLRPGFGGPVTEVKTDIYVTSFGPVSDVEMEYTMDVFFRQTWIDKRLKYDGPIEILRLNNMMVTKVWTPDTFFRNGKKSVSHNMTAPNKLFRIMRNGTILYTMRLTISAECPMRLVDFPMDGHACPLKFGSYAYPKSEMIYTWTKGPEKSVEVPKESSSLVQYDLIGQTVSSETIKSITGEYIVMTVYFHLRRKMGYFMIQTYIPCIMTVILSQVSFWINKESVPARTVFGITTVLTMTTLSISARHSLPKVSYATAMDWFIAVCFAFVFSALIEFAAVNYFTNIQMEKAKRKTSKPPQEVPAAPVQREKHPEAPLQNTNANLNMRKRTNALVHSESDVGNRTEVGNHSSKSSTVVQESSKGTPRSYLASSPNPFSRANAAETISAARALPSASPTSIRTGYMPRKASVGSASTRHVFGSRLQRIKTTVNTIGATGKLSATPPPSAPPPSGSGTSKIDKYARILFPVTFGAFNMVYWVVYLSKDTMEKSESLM
α4β3δ GABAA receptors, sequence (P28472 26-473): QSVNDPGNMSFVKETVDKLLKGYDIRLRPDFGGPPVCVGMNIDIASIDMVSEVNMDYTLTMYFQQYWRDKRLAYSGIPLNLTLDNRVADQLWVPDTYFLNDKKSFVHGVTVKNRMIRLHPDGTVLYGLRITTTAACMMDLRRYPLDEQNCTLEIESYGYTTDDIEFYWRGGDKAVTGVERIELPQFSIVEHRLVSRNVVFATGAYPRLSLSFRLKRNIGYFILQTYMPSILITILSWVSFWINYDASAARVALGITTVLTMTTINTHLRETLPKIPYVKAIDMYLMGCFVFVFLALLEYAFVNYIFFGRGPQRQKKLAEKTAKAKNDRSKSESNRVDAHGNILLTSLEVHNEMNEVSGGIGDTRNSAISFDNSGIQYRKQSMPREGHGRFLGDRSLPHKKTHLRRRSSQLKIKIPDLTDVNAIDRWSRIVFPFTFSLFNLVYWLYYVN
α4β3δ GABAA receptors, sequence (O14764 25-452 partner): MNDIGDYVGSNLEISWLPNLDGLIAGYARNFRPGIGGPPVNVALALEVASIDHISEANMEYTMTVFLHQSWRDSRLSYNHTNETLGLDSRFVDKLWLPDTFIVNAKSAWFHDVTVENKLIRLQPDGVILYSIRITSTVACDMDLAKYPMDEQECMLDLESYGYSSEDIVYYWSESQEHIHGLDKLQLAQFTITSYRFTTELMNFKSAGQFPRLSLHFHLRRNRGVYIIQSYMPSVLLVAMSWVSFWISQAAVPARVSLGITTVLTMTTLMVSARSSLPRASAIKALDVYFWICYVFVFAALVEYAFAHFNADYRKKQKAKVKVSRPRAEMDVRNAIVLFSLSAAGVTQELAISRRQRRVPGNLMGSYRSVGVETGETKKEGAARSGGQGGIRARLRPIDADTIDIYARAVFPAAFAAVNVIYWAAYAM

Compound `C[C@@]1(O)CC[C@@]2(C)[C@@H](CC[C@@H]3[C@@H]2CC[C@]2(C)[C@@H](C(=O)Cn4cc(C#N)cn4)CC[C@@H]32)C1` [CV-10155, 1-[2-[(3R,5S,8R,9S,10S,13S,14S,17S)-3-hydroxy-3,10,13-trimethyl-1,2,4,5,6,7,8,9,11,12,14,15,16,17-tetradecahydrocyclopenta[a]phenanthren-17-yl]-2-oxoethyl]pyrazole-4-carbonitrile] has a pEC50 (α1β2γ2 GABAA receptors) of 6.68, an Emax (α1β2γ2 GABAA receptors; α1β2γ2 Synaptic receptors, Synchropatch electrophysiology, read-out: Emax - efficacy: % of potentiation) of 586% and a pEC50 (α4β3δ GABAA receptors) of 6.78. The “fold higher efficiency at extra synaptic vs. synaptic channels” value (α4β3δ GABAA receptors; α4β3δ vs α1β2γ2) was 3 fold, the “dose from which robust efficacy was observed” value ([1]; most rodent models of seizure) was no less than 3 mg/kg and the “minimal effective dose (MED)” value ([1]; rodent models of seizure) was 1 mg/kg. The “dose proportionality of AUC and Cmax” value (human, in vivo, po) was “dose-proportional increase”, the “MTD, single ascending dose (SAD)” value (humans) was “ETX-155 135 mg SAD MTD” and the dose-limiting adverse event (humans) was “Ataxia”. For the same compound, the “effect of food consumption on absorption” value (humans, oral 30 mg, fed vs fasted) was “no clinically meaningful effect”, the adverse events observed (humans, single oral dose, 200 mg) was “ataxia, tremor and tachycardia” and the “inter-subject variability (CV) of AUC and Cmax” value (humans, single oral dose, 5-200 mg dose range) was no more than 30%. For the same compound, the dose-limiting adverse events (humans, single oral dose, range of 5-135 mg) was “No dose-limiting adverse events were observed”, the “most common adverse events” value (humans, single oral dose, mild to moderate, only observed at the highest doses) was “Dizziness and somnolence” and the “Dizziness, AEs % of subjects” value [2, 6] was 16.7%. For the same compound, the “Headache, AEs % of subjects” value [2, 6] was 8.3%, the “Somnolence, AEs % of subjects” value [2, 6] was 8.3% and the “Racc AUC” value ([2]; human, in vivo, 60 mg) was 1.84. The “ratio of Cmax/trough on day 7” value ([2]; humans, 60 mg daily in the evening in a fed state) was 3.47, the “ratio of Cmax/trough on day 7” value ([2]; humans, 60 mg daily in the morning in a fasted state) was 6.09 and the “tolerability profile compared to PRAX-114 and Sage-217” value ([2]; humans, 60 mg dosed in the evening) was “favorable tolerability profile compared to PRAX-114 and one comparable to that of Sage-217”. For the same compound, the “exposure levels in humans vs 30 mg doses of Sage-217” value ([2]; humans, 60 mg doses) was “higher exposure levels”, the “absorption, morning fasted vs evening fed” value ([2]; humans, 60 mg orally once per day for seven days) was “no significant difference in absorption” and the Cmin [2, 7] was 41.5 ng/mL. The “Ratio (Cmax/Cmin)” value [2, 7] was 6.07, the “AE Back pain (Musculoskeletal and connective tissue disorders), #” value [2, 8] was 1 and the “AE Bloating (Gastrointestinal disorders), #” value [2, 8] was 1. For the same compound, the “AE Dizziness (Nervous system disorders), #” value [2, 8] was 1, the “AE Headache (Nervous system disorders), #” value [2, 8] was 2 and the “AE Sleepiness (Nervous system disorders), #” value ([2]; humans, 60 mg, evening, fed state, N = 9, printed on two separate lines) was 1. The “AE Dizziness (Nervous system disorders), #” value [2, 9] was 1, the “AE Feeling sleepy (Nervous system disorders), #” value [2, 9] was 1 and the “AE Feeling tired (General disorders and administration site conditions), #” value [2, 9] was 2. For the same compound, the “AE Headache (Nervous system disorders), #” value [2, 9] was 2, the “AE Sleepiness (Nervous system disorders), #” value [2, 9] was 9 and the “AE Tiredness (General disorders and administration site conditions), #” value [2, 9] was 3. The “Somnolence: duration” value [2, 10] was 10.62 h, the “Somnolence: severity” value [2, 10] was “Mild” and the “Headache: duration” value [2, 11] was 13.25 h. For the same compound, the “Headache: onset from dose” value [2, 11] was “pre-dose”, the “Headache: severity” value [2, 11] was “Mild” and the “Abdominal distension: duration” value [2, 12] was 06.50 h. For the same compound, the “Abdominal distension: severity” value [2, 12] was “Mild”, the “Dizziness: duration” value [2, 13] was 20.50 h and the “Dizziness: severity” value [2, 13] was “Mild”. The “Dizziness: duration” value [2, 14] was 13.00 h, the “Dizziness: severity” value [2, 14] was “Mild” and the “Headache: duration” value [2, 15] was 14.50 h. For the same compound, the “Headache: severity” value [2, 15] was “Moderate”, the “Back pain: duration” value [2, 16] was 39.25 h and the “Back pain: severity” value [2, 16] was “Mild”. For the same compound, the “adverse effects that interfere with sleeping” value ([2]; humans, oral administration in the evening to fed subjects) was “does not produce adverse effects that interfere with sleeping”, the Vd (in vivo) was 1.92 L/kg and the clearance (in vivo) was 2.17 mL/min/kg. The half-life (in vivo) was 834 min, the AUC(0-inf) (clinical [3]; 135 mg) was 3660 ng·h/mL and the Cmax (clinical [3]; 135 mg) was 333 ng/mL. It also gave a Tmax (clinical [3]; 135 mg) of 2.83 h, a half-life (clinical [3]; 135 mg) of 1500 min and a Tmax (clinical [3]; po) of 2 to 4 h. For the same compound, the half-life (clinical [3]; po) was 1440 to 1560 min, the AUC (clinical [4]) was 2900 ng·h/mL and the Cmax (clinical [4]) was 253 ng/mL. For the same compound, the Tmax (clinical [4]) was 3 h, the half-life (clinical [4]) was 2070 min and the 1/2 life [5, 17] was 3.66-6.82. The “Oral BA” value [5, 17] was 58.6-92.4, the “Oral BA” value ([5]; 2 mg/kg, study including only male subjects) was 47.2 and the 1/2 life [5, 18] was 2.84-4.96. The “Oral BA” value [5, 18] was 53-92.3, the 1/2 life [5, 19] was 4.19 and the “Oral BA” value [5, 19] was 58.1. The 1/2 life [5, 20] was 3.23-4.80, the “Oral BA” value [5, 20] was 79.7-100 and the AUC(0-inf) ([5]; both, rodent, in vivo, po, 1 mg/kg) was 508 to 1300 ng·h/mL.
